# How the values were obtained:
# [1] = system: IL-6 levels in human whole blood stimulated with a TLR2 agonist; assay: IRAK4 Whole Blood Assay (lipoteichoic acid/TLR2-stimulated IL-6); type: cell-based; details: Homo sapiens, lipoteichoic acid 10 μg/mL, IL-6 readout
# Summary of the method: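 ACD-A-anticoagulated human whole blood was preincubated with compounds for 60 min at 37 °C under 5% CO2. It was then stimulated with 10 μg/mL lipoteichoic acid (final) in RPMI for 5 h. IL-6 in plasma supernatants was measured by flow cytometry bead assay.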
# IRAK4 = IRAK4 (Homo sapiens (Human), UniProt Q9NWZ3); assay: IRAK4 Inhibition Assay; type: biochemical; details: ATP 500 μM; IRAK4 0.6 nM
# Summary of the method: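 Mobility-shift readout: phosphorylated and unphosphorylated fluorescent peptide (1.5 μM) resolved by electrophoresis after a 60 min room-temperature reaction stopped with EDTA. Reaction holds 0.6 nM IRAK4, 500 μM ATP and 1.6% DMSO in HEPES pH 7.2/MgCl2/Brij 35/DTT buffer; percent inhibition set against vehicle and no-enzyme controls.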
# Caco Permeability Assay = type: in vitro ADME; details: human, Caco-2, Caco-2 cells, 3 μM compound
# Procedure: Thirteen to 27 days prior to assay, Caco-2 cells were seeded onto collagen-coated polycarbonate filter membranes in 24-well transwell plates at a density of 1.45×10^5 cells/cm^2, approximately 4.8×10^4 cells per well. The cells were grown in a culture medium consisting of DMEM supplemented with 10% fetal bovine serum, 10 mM HEPES, 1% nonessential amino acids, 2 mM L-glutamine, 100 U/mL penicillin-G, and 100 μg/mL streptomycin. The culture medium was replaced every 3 days and the cells were maintained at 37° C. in a 95% relative humidity and 5% CO2 atmosphere. The cells were evaluated for tight junction formation just prior to assay. The test compound was solubilized to 10 mM in 100% DMSO and diluted to 3 μM in assay buffer. Permeability studies were initiated by adding 200 μL assay buffer plus/minus compound to the apical transwell compartment and 600 μL assay buffer plus/minus compound to the basolateral compartment of the 24-well transwell low-binding cluster plate. For apical-to-basolateral (A to B) permeability (absorptive direction), buffer containing compound was placed in the apical compartment (donor wells), while buffer alone was placed in the corresponding basolateral compartments (receiver wells). For basolateral-to-apical (B to A) permeability (secretive direction), buffer containing compound was placed in the basolateral compartment (donor wells), while buffer alone was placed in the corresponding apical compartments (receiver wells). Transwells were then incubated for 2 hours at 37° C. in a 95% relative humidity and 5% CO2 atmosphere with gentle agitation. Following incubation, 100 μL was removed from each apical and basolateral compartment and transferred to 96-well low binding plates that had been previously loaded with 100 µL/well of acetonitrile containing 250 nM propranolol, 250 nM diclofenac, and 500 nM tolbutamide as internal standards. The samples were subsequently analyzed by LC-MS/MS to determine concentrations of compound.
# IRAK4, sequence (Q9NWZ3 whole entry): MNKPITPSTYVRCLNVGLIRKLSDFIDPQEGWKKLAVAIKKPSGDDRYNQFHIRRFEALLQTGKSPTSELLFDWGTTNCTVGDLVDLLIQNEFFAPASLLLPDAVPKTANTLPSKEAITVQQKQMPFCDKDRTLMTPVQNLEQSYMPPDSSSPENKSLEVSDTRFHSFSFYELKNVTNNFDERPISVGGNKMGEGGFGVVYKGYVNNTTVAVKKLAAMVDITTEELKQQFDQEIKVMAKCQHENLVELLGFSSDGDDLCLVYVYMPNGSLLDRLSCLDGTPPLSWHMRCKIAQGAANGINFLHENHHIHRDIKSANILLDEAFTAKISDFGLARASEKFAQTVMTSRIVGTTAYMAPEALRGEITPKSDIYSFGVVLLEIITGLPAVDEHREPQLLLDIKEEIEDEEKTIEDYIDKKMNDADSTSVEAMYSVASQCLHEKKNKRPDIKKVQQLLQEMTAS
SMILES,EC50 [1] [nM],IC50 (IRAK4) [nM],"Papp at 2 h, 3 µM (Caco Permeability Assay) [×10⁻⁶ cm/s]"
"C[C@@H](CO)Nc1cc(-c2cnn3cc(Cl)cnc23)ncc1C(=O)NC[C@@H](F)C(C)(C)O [Example 31, 6-(6-chloropyrazolo[1,5-a]pyrimidin-3-yl)-N—((R)-2-fluoro-3-hydroxy-3-methylbutyl)-4-(((S)-1-hydroxypropan-2-yl)amino)nicotinamide]",140,7,< 1.5
"C[C@@H](CF)Nc1cc(-c2cnn3cc(Cl)cnc23)ncc1C(=O)NC[C@@H](F)C(C)(C)O [Example 32, 6-(6-chloropyrazolo[1,5-a]pyrimidin-3-yl)-N—((R)-2-fluoro-3-hydroxy-3-methylbutyl)-4-(((S)-1-fluoropropan-2-yl)amino)nicotinamide]",710,4,24.1
"CC(C)(O)[C@H](F)CNC(=O)c1cnc(-c2cnn3cc(Cl)cnc23)cc1Nc1ccc(C(N)=O)cc1 [Example 33, (R)-4-((4-carbamoylphenyl)amino)-6-(6-chloropyrazolo[1,5-a]pyrimidin-3-yl)-N-(2-fluoro-3-hydroxy-3-methylbutyl) nicotinamide]",350,2,< 1.5
"CNC(=O)c1ccc(Nc2cc(-c3cnn4cc(Cl)cnc34)ncc2C(=O)NC[C@@H](F)C(C)(C)O)cc1 [Example 34, (R)-6-(6-chloropyrazolo[1,5-a]pyrimidin-3-yl)-N-(2-fluoro-3-hydroxy-3-methylbutyl)-4-((4-(methylcarbamoyl)phenyl)amino)nicotinamide]",360,2,< 1.5
"CC(C)Nc1cc(-c2cnn3cc(Cl)cnc23)ncc1C(=O)NCC(F)C1(O)COC1 (stereo not drawn) [Example 37, 6-(6-chloropyrazolo[1,5-a]pyrimidin-3-yl)-N-(2-fluoro-2-(3-hydroxyoxetan-3-yl)ethyl)-4-(isopropylamino)nicotinamide]",700,6,4.8
"CC(C)(O)[C@H]1CC[C@H](NC(=O)c2cnc(-c3cnn4cc(Cl)cnc34)cc2NC2COC2)CC1 [Example 40, 6-(6-chloropyrazolo[1,5-a]pyrimidin-3-yl)-N-((1r,4r)-4-(2-hydroxypropan-2-yl)cyclohexyl)-4-(oxetan-3-ylamino)nicotinamide]",1720,4,22.1
"CC(C)(O)[C@H](F)CNC(=O)c1cnc(-c2cnn3cc(Cl)cnc23)cc1N[C@@H]1COC[C@H]1F [Example 44, 6-(6-chloropyrazolo[1,5-a]pyrimidin-3-yl)-N—((R)-2-fluoro-3-hydroxy-3-methylbutyl)-4-(((3R,4S)-4-fluorotetrahydrofuran-3-yl)amino)nicotinamide]",2730,7,5.3
"CC(C)(O)CCNC(=O)c1cnc(-c2cnn3cc(Cl)cnc23)cc1NC1COC1 [Example 47, 6-(6-chloropyrazolo[1,5-a]pyrimidin-3-yl)-N-(3-hydroxy-3-methylbutyl)-4-(oxetan-3-ylamino)nicotinamide]",350,8,17.3
"CC(C)(O)[C@H](F)CNC(=O)c1cnc(-c2cnn3cc(Cl)cnc23)cc1Nc1cnn(C2COC2)c1 [Example 48, (R)-6-(6-chloropyrazolo[1,5-a]pyrimidin-3-yl)-N-(2-fluoro-3-hydroxy-3-methylbutyl)-4-((1-(oxetan-3-yl)-1H-pyrazol-4-yl)amino)nicotinamide]",300,1,2.6
"CC(C)Nc1cc(-c2cnn3cc(Cl)cnc23)ncc1C(=O)N[C@H]1CC[C@H](NC(=O)[C@H](C)O)CC1 [Example 49, 6-(6-chloropyrazolo[1,5-a]pyrimidin-3-yl)-N-((1S,4r)-4-((S)-2-hydroxypropanamido)cyclohexyl)-4-(isopropylamino)nicotinamide]",2920,18,< 1.5
"CC(C)(O)[C@H]1CC[C@H](Nc2cc(-c3cnn4cc(Cl)cnc34)ncc2C(=O)NC[C@@H](F)C(C)(C)O)C1 [Example 50, 6-(6-chloropyrazolo[1,5-a]pyrimidin-3-yl)-N—((R)-2-fluoro-3-hydroxy-3-methylbutyl)-4-(((1S,3S)-3-(2-hydroxypropan-2-yl)cyclopentyl)amino)nicotinamide]",690,2,3
"CC(C)(O)[C@H](F)CNC(=O)c1cnc(-c2cnn3cc(Cl)cnc23)cc1Nc1cnn(C2CCOCC2)c1 [Example 52, (R)-6-(6-chloropyrazolo[1,5-a]pyrimidin-3-yl)-N-(2-fluoro-3-hydroxy-3-methylbutyl)-4-((1-(tetrahydro-2H-pyran-4-yl)-1H-pyrazol-4-yl)amino)nicotinamide]",280,3,< 1.5
"CCNc1cc(-c2cnn3cc(Cl)cnc23)ncc1C(=O)NC[C@@H](F)C(C)(C)O [Example 56, (R)-6-(6-chloropyrazolo[1,5-a]pyrimidin-3-yl)-4-(ethylamino)-N-(2-fluoro-3-hydroxy-3-methylbutyl) nicotinamide]",360,5,14.3
"CC(C)(O)CNc1cc(-c2cnn3cc(Cl)cnc23)ncc1C(=O)NC[C@@H](F)C(C)(C)O [Example 58, (R)-6-(6-chloropyrazolo[1,5-a]pyrimidin-3-yl)-N-(2-fluoro-3-hydroxy-3-methylbutyl)-4-((2-hydroxy-2-methylpropyl)amino)nicotinamide]",350,14,< 1.5
"CC(C)(O)[C@H](F)CNC(=O)c1cnc(-c2cnn3cc(Cl)cnc23)cc1NC1CCC1 [Example 60, (R)-6-(6-chloropyrazolo[1,5-a]pyrimidin-3-yl)-4-(cyclobutylamino)-N-(2-fluoro-3-hydroxy-3-methylbutyl)nicotinamide]",4930,4,27
"C[C@H](F)CNc1cc(-c2cnn3cc(Cl)cnc23)ncc1C(=O)NC[C@@H](F)C(C)(C)O [Example 61, 6-(6-chloropyrazolo[1,5-a]pyrimidin-3-yl)-N—((R)-2-fluoro-3-hydroxy-3-methylbutyl)-4-(((S)-2-fluoropropyl)amino)nicotinamide]",1820,6,19.7
"CC(C)(O)[C@H](F)CNC(=O)c1cnc(-c2cnn3cc(Cl)cnc23)cc1NC1CC(F)(F)C1 [Example 65, (R)-6-(6-chloropyrazolo[1,5-a]pyrimidin-3-yl)-4-((3,3-difluorocyclobutyl)amino)-N-(2-fluoro-3-hydroxy-3-methylbutyl)nicotinamide]",3470,4,12.6
"CC(C)(O)[C@H](F)CNC(=O)c1cnc(-c2cnn3cc(Cl)cnc23)cc1NC1CCCC1 [Example 67, (R)-6-(6-chloropyrazolo[1,5-a]pyrimidin-3-yl)-4-(cyclopentylamino)-N-(2-fluoro-3-hydroxy-3-methylbutyl)nicotinamide]",3080,2,18.4
"CC(C)(O)[C@H](F)CNC(=O)c1cnc(-c2cnn3cc(Cl)cnc23)cc1NC1CCN(S(C)(=O)=O)CC1 [Example 68, (R)-6-(6-chloropyrazolo[1,5-a]pyrimidin-3-yl)-N-(2-fluoro-3-hydroxy-3-methylbutyl)-4-((1-(methylsulfonyl)piperidin-4-yl)amino) nicotinamide]",420,2,< 1.5
"CC[C@@H](C)Nc1cc(-c2cnn3cc(Cl)cnc23)ncc1C(=O)NC[C@@H](F)C(C)(C)O [Example 70, 4-(((R)-sec-butyl)amino)-6-(6-chloropyrazolo[1,5-a]pyrimidin-3-yl)-N—((R)-2-fluoro-3-hydroxy-3-methylbutyl)nicotinamide]",840,3,7.3
"CC(C)(O)[C@H](F)CNC(=O)c1cnc(-c2cnn3cc(Cl)cnc23)cc1Nc1cnn(CC(F)F)c1 [Example 71, (R)-6-(6-chloropyrazolo[1,5-a]pyrimidin-3-yl)-4-((1-(2,2-difluoroethyl)-1H-pyrazol-4-yl)amino)-N-(2-fluoro-3-hydroxy-3-methylbutyl)nicotinamide]",70,1,1.7
